Our source for the Km and stoichiometry N values is article PMC5488091, “Tellurite and Tellurate Reduction by the Aerobic Anoxygenic Phototroph Erythromonas ursincola, Strain KR99 Is Carried out by a Novel Membrane Associated Enzyme” (Microorganisms, 2017).

The subject of assay [1] is T1, tellurite reductase (membrane associated tellurite/tellurate reductase).
T1 construct: native enzyme purified from Triton X-100 solubilised membranes of KR99; 117 kDa heterodimer (62 + 55 kDa, 1:1); MS nearest match GroEL of Blastomonas sp
The experiment in a line: spectrophotometric tellurite reduction at […] nm. As to conditions: electron donor; co-substrate tellurite; pH 7.0, 28 °C. It counts as biochemical, Blastomonas ursincola.

Assay [2] has the same test system. Format: biochemical, Blastomonas ursincola. Conditions: co-substrate NADH (25 µL of 5 mM stock as printed), Tris HCl pH 7.0, 28 °C.
In assay [3] the target is tellurite reductase 55 kDa subunit of Erythromonas ursincola, strain KR99 (Erythromonas ursincola, strain KR99 (endogenous)). The experiment in a line: SEC; endogenous enzyme co-purified from solubilised membranes; single band on 5% native PAGE; native mass by Superdex S-200 gel filtration in 20 mM Tris HCl pH 8.0; subunits by SDS-PAGE (12%) after boiling in 1% SDS with 2-mercaptoethanol. (In general: In gel filtration, larger molecules generally elute earlier.)

Read-outs that look alike come from different tables or passages of the source.

In the case of `NC(=O)C1=CN([C@@H]2O[C@H](COP(=O)(O)OP(=O)(O)OC[C@H]3O[C@@H](n4cnc5c(N)ncnc54)[C@H](O)[C@@H]3O)[C@@H](O)[C@H]2O)C=CC1` [NADH], in assay [1], the Michaelis-Menten constant (Km) amounted to 81.5 µM.

In the case of `O=[Te](=O)(O)O` [tellurate], in assay [2] (tellurate 0–5 mM), the Km is 1440 µM.

For `O=[Te](O)O` [tellurite], the Km in assay [2] (tellurite 0–13 mM) worked out at 3360 µM.

In assay [3], “tellurite reductase 62 kDa subunit of Erythromonas ursincola, strain KR99 (natural protein)” showed a stoichiometry N of 1.

One may read the Km as the concentration of substrate that gives half-maximal velocity. As a reminder, the stoichiometry N is the number of molecules, sites or subunits per partner or assembly.
